Experimental data reported in ChEMBL document CHEMBL3865791, “Discovery and development of natural product oridonin-inspired anticancer agents” (Eur J Med Chem, 2016).

What was measured:
[1] = Antiproliferative activity against human ER-positive MCF7 cells measured after 48 hrs by MTT assay; format: functional, cell-based; details: MCF7, 48 h
[2] = Anticancer activity against AML cells isolated from AML-ETO9a leukemia mouse measured after 48 hrs by CCK8 assay; format: functional, cell-based
[3] = Anticancer activity against human Kasumi-1 cells measured after 48 hrs by CCK8 assay; format: functional, cell-based; details: Kasumi 1, 48 h
[4] = Anticancer activity against human K562 cells measured after 24 hrs by MTT assay; format: functional, cell-based; details: K562, 24 h
[5] = Anticancer activity against human K562/ADR cells measured after 24 hrs by MTT assay; format: functional, cell-based
[6] = Anticancer activity against human MT1 cells measured after 48 hrs by trypan blue assay; format: functional, cell-based; details: MT1, 48 h
[7] = Anticancer activity against human MT2 cells measured after 48 hrs by trypan blue assay; format: functional, cell-based; details: MT2, 48 h
[8] = Anticancer activity against human U266 cells measured after 48 hrs by trypan blue assay; format: functional, cell-based; details: U-266, 48 h
[9] = Anticancer activity against human RPMI8226 cells measured after 48 hrs by trypan blue assay; format: functional, cell-based; details: RPMI-8226, 48 h
[10] = Anticancer activity against human Jurkat cells measured after 48 hrs by trypan blue assay; format: functional, cell-based
[11] = Anticancer activity against human Hep2 cells measured after 24 hrs by MTT assay; format: functional, cell-based; details: HEp-2, 24 h
[12] = Anticancer activity against human LX2 cells measured after 48 hrs by alamar blue assay; format: functional, cell-based; details: LX-2, 48 h
[13] = Anticancer activity against rat HSC-T6 cells measured after 48 hrs by alamar blue assay; format: functional, cell-based; details: HSC-T6, 48 h
[14] = Anticancer activity against human PC3 cells measured after 48 hrs by CCK8 assay; format: functional, cell-based; details: PC-3, 48 h
[15] = Anticancer activity against human LNCAP cells measured after 48 hrs by CCK8 assay; format: functional, cell-based
[16] = Anticancer activity against human SW480 cells measured after 24 hrs by MTT assay; format: functional, cell-based; details: SW480, 24 h
[17] = Anticancer activity against human SW620 cells measured after 24 hrs by MTT assay; format: functional, cell-based; details: SW-620, 24 h
[18] = Antiproliferative activity against human […] cells after 24 hrs by MTT assay; format: functional, cell-based
[19] = Antiproliferative activity against human K562 cells after 72 hrs by MTT assay; format: functional, cell-based; details: K562, 72 h
[20] = Antiproliferative activity against human […] cells after 72 hrs by MTT assay; format: functional, cell-based
[21] = Antitumor activity against H22 cells xenografted in ICR mouse assessed as tumor growth inhibition at 20 mg/kg/day, ip administered for 4 consecutive days relative to control; format: functional; details: read-out: TGI
[22] = Antiproliferative activity against human MCF7 cells; format: functional, cell-based
[23] = Antiproliferative activity against human MDA-MB-231 cells; format: functional, cell-based
[24] = Antiproliferative activity against human MDA-MB-231 cells measured after 48 hrs by MTT assay; format: functional, cell-based; details: MDA-MB-231, 48 h
[25] = Antiproliferative activity against human ER-triple negative MDA-MB-468 cells measured after 48 hrs by MTT assay; format: functional, cell-based; details: MDA-MB-468, 48 h
[26] = Antiproliferative activity against human MCF7/ADR cells measured after 48 hrs by MTT assay; format: functional, cell-based; details: NCI/ADR-RES
[27] = Antiproliferative activity against human MGC803 cells after 72 hrs by MTT assay; format: functional, cell-based; details: MGC-803, 72 h
[28] = Antiproliferative activity against human CaEs17 cells after 72 hrs by MTT assay; format: functional, cell-based; details: CaEs17, 72 h
[29] = Antitumor activity against human MGC803 cells xenografted in ICR mouse assessed as tumor growth inhibition at 40 mg/kg/day, ip for 25 consecutive days relative to control; format: functional; details: MGC-803, ip, read-out: TGI
[30] = Oral bioavailability in Wistar rat at 20 mg/kg administered as single dose through gavage measured after 48 hrs by HPLC/ESI-MS analysis; format: ADME, organism-based; details: in vivo
[31] = Oral bioavailability in Wistar rat at 10 mg/kg, ip administered as single dose measured after 36 hrs by HPLC/ESI-MS analysis; format: ADME, organism-based; details: in vivo, intraperitoneal

## C=C1C(=O)[C@]23[C@H](O)[C@H]1CC[C@H]2[C@@]12CO[C@]3(O)[C@@H](O)[C@@H]1C(C)(C)CC[C@@H]2O [ORIDONIN]
[1]
  EC50: 4.4 µM
[2]
  EC50: 2.5 µM
[3]
  EC50: 1.33 µM
[4]
  EC50: 14.6 µM
[5]
  EC50: < 40 µM
[6]
  EC50: 1.2 to 2.7 µM
[7]
  EC50: 1.2 to 2.7 µM
[8]
  EC50: 1.2 to 2.7 µM
[9]
  EC50: 1.2 to 2.7 µM
[10]
  EC50: 1.2 to 2.7 µM
[11]
  EC50: 37.1 µM
[12]
  EC50: 7 µM
[13]
  EC50: 7 µM
[14]
  EC50: 25 µM
[15]
  EC50: 25 µM
[16]
  EC50: 20.8 to 37 µM
[17]
  EC50: 20.8 to 37 µM
[18]
  EC50: 29.8 µM
[19]
  EC50: 4.76 µM
[20]
  EC50: 7.48 µM
[21]
  inhibition in vivo at 20 mg/kg/day: 42.7%
[22]
  EC50: 6.6 µM
[23]
  EC50: 29.4 µM
[24]
  EC50: 28 to 29.4 µM
[25]
  EC50: 5.3 µM
[26]
  EC50: 34.8 µM
[27]
  EC50: 5.69 µM
[28]
  EC50: 11 µM
[29]
  inhibition in vivo at 40 mg/kg/day: 37.3%
[30]
  bioavailability: 4.3%
[31]
  bioavailability: 12.6%
